# Legend:
# Assay in all cases: NCI-60 single-dose screen
# Assay type in all cases: cell-based
# [1] = system: NCI-H322M; settings: Homo sapiens, single dose 10 µM, '-' = no inhibition, read-out: % Growth Inhibition
# In short: (§1)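 The NCI Developmental Therapeutics Program exposed each of 60 cancer cell lines, drawn from leukemia, lung, colon, CNS, melanoma, ovarian, renal, prostate and breast origins, to one concentration of compound (10 μM).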
# [2] = system: A549/ATCC; settings: Homo sapiens, single dose 10 µM, '-' = no inhibition, read-out: % Growth Inhibition
# In short: as §1
# [3] = system: A498; settings: Homo sapiens, single dose 10 µM, '-' = no inhibition, read-out: % Growth Inhibition
# In short: as §1
# [4] = system: DU-145; settings: Homo sapiens, single dose 10 µM, '-' = no inhibition, read-out: % Growth Inhibition
# In short: as §1
# [5] = system: HCT-15; settings: Homo sapiens, single dose 10 µM, '-' = no inhibition, read-out: % Growth Inhibition
# In short: as §1
# [6] = system: UO-31; settings: Homo sapiens, single dose 10 µM, '-' = no inhibition, read-out: % Growth Inhibition
# In short: as §1
# [7] = system: SK-MEL-28; settings: Homo sapiens, single dose 10 µM, '-' = no inhibition, read-out: % Growth Inhibition
# In short: as §1
# [8] = system: RXF 393; settings: Homo sapiens, single dose 10 µM, '-' = no inhibition, read-out: % Growth Inhibition
# In short: as §1
# [9] = system: TK-10; settings: Homo sapiens, single dose 10 µM, '-' = no inhibition, read-out: % Growth Inhibition
# In short: as §1
# [10] = system: OVCAR-5; settings: Homo sapiens, single dose 10 µM, '-' = no inhibition, read-out: % Growth Inhibition
# In short: as §1
# [11] = system: 786-0; settings: Homo sapiens, single dose 10 µM, '-' = no inhibition, read-out: % Growth Inhibition
# In short: as §1
# [12] = system: HOP-92; settings: Homo sapiens, single dose 10 µM, '-' = no inhibition, read-out: % Growth Inhibition
# In short: as §1
# [13] = system: U251; settings: Homo sapiens, U-251, single dose 10 µM, '-' = no inhibition, read-out: % Growth Inhibition
# In short: as §1
# [14] = system: SK-OV-3; settings: Homo sapiens, single dose 10 µM, '-' = no inhibition, read-out: % Growth Inhibition
# In short: as §1
# [15] = system: SNB-75; settings: Homo sapiens, single dose 10 µM, '-' = no inhibition, read-out: % Growth Inhibition
# In short: as §1
# [16] = system: EKVX; settings: Homo sapiens, single dose 10 µM, '-' = no inhibition, read-out: % Growth Inhibition
# In short: as §1
# [17] = system: NCI-H460; settings: Homo sapiens, single dose 10 µM, '-' = no inhibition, read-out: % Growth Inhibition
# In short: as §1
# [18] = system: SR; settings: Homo sapiens, single dose 10 µM, '-' = no inhibition, read-out: % Growth Inhibition
# In short: as §1
# [19] = system: RPMI-8226; settings: Homo sapiens, single dose 10 µM, '-' = no inhibition, read-out: % Growth Inhibition
# In short: as §1
# [20] = system: UACC-62; settings: Homo sapiens, single dose 10 µM, '-' = no inhibition, read-out: % Growth Inhibition
# In short: as §1
# [21] = system: MDA-MB231/ATCC; settings: Homo sapiens, MDA-MB-231, single dose 10 µM, '-' = no inhibition, read-out: % Growth Inhibition
# In short: as §1
# [22] = system: SF-539; settings: Homo sapiens, single dose 10 µM, '-' = no inhibition, read-out: % Growth Inhibition
# In short: as §1
# [23] = system: OVCAR-3; settings: Homo sapiens, single dose 10 µM, '-' = no inhibition, read-out: % Growth Inhibition
# In short: as §1
# [24] = system: SNB-19; settings: Homo sapiens, single dose 10 µM, '-' = no inhibition, read-out: % Growth Inhibition
# In short: as §1
# [25] = system: NCI-H522; settings: Homo sapiens, single dose 10 µM, '-' = no inhibition, read-out: % Growth Inhibition
# In short: as §1
# [26] = system: BT-549; settings: Homo sapiens, single dose 10 µM, '-' = no inhibition, read-out: % Growth Inhibition
# In short: as §1
# [27] = system: M14; settings: Homo sapiens, single dose 10 µM, '-' = no inhibition, read-out: % Growth Inhibition
# In short: as §1
# [28] = system: NCI-H23; settings: Homo sapiens, single dose 10 µM, '-' = no inhibition, read-out: % Growth Inhibition
# In short: as §1
# [29] = system: HOP-62; settings: Homo sapiens, single dose 10 µM, '-' = no inhibition, read-out: % Growth Inhibition
# In short: as §1
# [30] = system: MDA-MB-468; settings: Homo sapiens, single dose 10 µM, '-' = no inhibition, read-out: % Growth Inhibition
# In short: as §1
# [31] = system: LOX IMVI; settings: Homo sapiens, single dose 10 µM, '-' = no inhibition, read-out: % Growth Inhibition
# In short: as §1
# [32] = system: COLO 205; settings: Homo sapiens, single dose 10 µM, '-' = no inhibition, read-out: % Growth Inhibition
# In short: as §1
# [33] = system: ACHN 1; settings: Homo sapiens, single dose 10 µM, '-' = no inhibition, read-out: % Growth Inhibition
# In short: as §1
# [34] = system: HL-60(TB); settings: Homo sapiens, single dose 10 µM, '-' = no inhibition, read-out: % Growth Inhibition
# [35] = system: PC-3; settings: Homo sapiens, single dose 10 µM, '-' = no inhibition, read-out: % Growth Inhibition
# In short: as §1
# [36] = system: MALME-3M; settings: Homo sapiens, single dose 10 µM, '-' = no inhibition, read-out: % Growth Inhibition
# In short: as §1
# [37] = system: T-47D; settings: Homo sapiens, T47D, single dose 10 µM, '-' = no inhibition, read-out: % Growth Inhibition
# In short: as §1
# [38] = system: HT29; settings: Homo sapiens, HT-29, single dose 10 µM, '-' = no inhibition, read-out: % Growth Inhibition
# In short: as §1
# [39] = system: SW-620; settings: Homo sapiens, single dose 10 µM, '-' = no inhibition, read-out: % Growth Inhibition
# In short: as §1
# [40] = system: KM12; settings: Homo sapiens, single dose 10 µM, '-' = no inhibition, read-out: % Growth Inhibition
# In short: as §1
# [41] = system: NCI/ADR-RES; settings: Homo sapiens, single dose 10 µM, '-' = no inhibition, read-out: % Growth Inhibition
# In short: as §1
# [42] = system: OVCAR-4; settings: Homo sapiens, single dose 10 µM, '-' = no inhibition, read-out: % Growth Inhibition
# In short: as §1
# [43] = system: IGROV1; settings: Homo sapiens, IGROV-1, single dose 10 µM, '-' = no inhibition, read-out: % Growth Inhibition
# In short: as §1
# [44] = system: UACC-257; settings: Homo sapiens, single dose 10 µM, '-' = no inhibition, read-out: % Growth Inhibition
# In short: as §1
# [45] = system: MOLT-4; settings: Homo sapiens, single dose 10 µM, '-' = no inhibition, read-out: % Growth Inhibition
# In short: as §1
# [46] = system: SF-295; settings: Homo sapiens, single dose 10 µM, '-' = no inhibition, read-out: % Growth Inhibition
# In short: as §1
# [47] = system: CAKI-1; settings: Homo sapiens, single dose 10 µM, '-' = no inhibition, read-out: % Growth Inhibition
# In short: as §1
structure (smiles),measurement,setting,value
"COc1ccc(-c2cc(-c3ccc(Cl)cc3)nc(SC(C)C)n2)cc1OC [Compound 26, 4-(4-Chlorophenyl)-2-(isopropylthio)-6-(3,4-dimethoxyphenyl)pyrimidine]",inhibition at 10 µM,[1],1.11%
same,inhibition at 10 µM,[2],0.02%
same,inhibition at 10 µM,[3],< 0%
same,inhibition at 10 µM,[4],< 0%
same,inhibition at 10 µM,[5],4.73%
same,inhibition at 10 µM,[6],15.2%
same,inhibition at 10 µM,[7],< 0%
same,inhibition at 10 µM,[8],< 0%
same,inhibition at 10 µM,[9],< 0%
same,inhibition at 10 µM,[10],< 0%
same,inhibition at 10 µM,[11],< 0%
same,inhibition at 10 µM,[12],< 0%
same,inhibition at 10 µM,[13],< 0%
same,inhibition at 10 µM,[14],< 0%
same,inhibition at 10 µM,[15],< 0%
same,inhibition at 10 µM,[16],4.59%
same,inhibition at 10 µM,[17],< 0%
same,inhibition at 10 µM,[18],12.6%
same,inhibition at 10 µM,[19],0.53%
same,inhibition at 10 µM,[20],17.4%
same,inhibition at 10 µM,[21],4.5%
same,inhibition at 10 µM,[22],< 0%
same,inhibition at 10 µM,[23],< 0%
same,inhibition at 10 µM,[24],3.77%
same,inhibition at 10 µM,[25],9.05%
same,inhibition at 10 µM,[26],< 0%
same,inhibition at 10 µM,[27],< 0%
same,inhibition at 10 µM,[28],< 0%
same,inhibition at 10 µM,[29],< 0%
same,inhibition at 10 µM,[30],7.33%
same,inhibition at 10 µM,[31],4.14%
same,inhibition at 10 µM,[32],< 0%
same,inhibition at 10 µM,[33],< 0%
same,inhibition at 10 µM,[34],14.5%
same,inhibition at 10 µM,[35],< 0%
same,inhibition at 10 µM,[36],< 0%
same,inhibition at 10 µM,[37],14.2%
same,inhibition at 10 µM,[38],13.1%
same,inhibition at 10 µM,[39],2.64%
same,inhibition at 10 µM,[40],1.72%
same,inhibition at 10 µM,[41],< 0%
same,inhibition at 10 µM,[42],< 0%
same,inhibition at 10 µM,[43],< 0%
same,inhibition at 10 µM,[44],0.69%
same,inhibition at 10 µM,[45],5.51%
same,inhibition at 10 µM,[46],< 0%
same,inhibition at 10 µM,[47],9.22%
